The values below come from patent US20210379085A1, “HALOGENATED SALICYLANILIDES FOR TREATING THE SYMPTOMS OF DERMATITIS” (Union Therapeutics A/S, priority 2018, published 2021).

One data set in a line: in vivo. The settings on record: dog.
Data set [1] can be described thus: Plasma pharmacokinetics of oxyclozanide after topical Composition K in dogs (Example 5). Type of data set: in vivo, dog. Here is the method: The cutaneous route (topical administration) was the route of administration for composition K on dogs. Composition K was applied evenly along the backbone starting from the base of the tail to the back of the neck.
For all animals of group A, a blood sample of around 4 ml was collected from the jugular vein using tubes containing lithium heparin at the following times (with tolerance of 10%): D-3a, D0a+1h, D0a+6h, D0a+12h, D0a+16h, D0a+24h, D0a+32h, D0a+48h, D3a, D5a et D7a.
Centrifugation (around 3500 revolutions/min, for 15 minutes at +4° C.) was performed a maximum of 30 minutes after sampling. The plasma was collected and then divided into two aliquots in tubes (Nunc 1.8 ml type) as follows: • S1 aliquot: around 0.5 ml • S2 aliquot: the remainder of the plasma (more than 0.5 ml)
The pharmacokinetic analysis was performed using Phoenix software (version 6.3, Pharsight, USA). Data points indicated as “missing” were systematically ignored during the calculation and therefore have no effect on the results. A missing status is assigned and no flag symbol is used. Values were excluded if, in the judgement of the pharmacokineticist, they were deemed not to be “[…].” If outliers were suspected, they were identified using the Outlier identification procedure of STATGRAPHICS.

In “in vivo” (iv, 2.5 mg/kg), `O=C(Nc1cc(Cl)cc(Cl)c1O)c1c(O)c(Cl)cc(Cl)c1Cl` [Oxyclozanide] had a Vd of approximately 0.6 L/kg and a half-life of 2280 min. In “in vivo” (po, 5 mg/kg), this compound displayed a bioavailability of 48%. In the data set “in vivo” (topical or ocular, 20 mg/kg), the AUC(0-inf) came to 55700 ng·h/mL and the bioavailability stood at 12%. The AUC(0-inf) in data set [1] (dog, plasma, topical or ocular, topical single 20 mg/kg Composition K, read-out: AUCinf in plasma (first value of the comparison, presumably Example 5)) was 60600 ng·h/mL. Besides, the “concentrations of oxyclozanide in plasma after topical administration” value in data set [1] (topical 20 mg/kg Composition K) was “Low concentrations”. Moreover, the “bioavailability after topical administration (Example 5, by comparison of AUCinf with Example 4)” value in data set [1] (topical 20 mg/kg Composition K, not calculated, no intravenous route in this study) is “about 12%”.

The Vd is a proportionality between amount in the body and measured concentration, not a real space. As usually defined, the half-life is the time in which the quantity being followed falls by half. A lower half-life goes with rapid decline. In general, bioavailability refers to dose-corrected exposure relative to a reference, in per cent. A low value points to little systemic uptake.
